Measured values reported in US20040209914A1, “Aromatic sulfone hydroxamic acids and their use as protease inhibitors” (priority 2000, published 2004).
Counter-ions that a name gives are not always drawn.

Columns and labels:
Recombinant human MMP-2 = biological target: T1, Recombinant human MMP-2 (Homo sapiens, UniProt P08253); test: biochemical; details: fluorogenic MCA-peptide substrate, pH 7.5, room temperature; read-out: MMP-2 IC50
T1 construct: made in house
T1 sequence (P08253 110-660): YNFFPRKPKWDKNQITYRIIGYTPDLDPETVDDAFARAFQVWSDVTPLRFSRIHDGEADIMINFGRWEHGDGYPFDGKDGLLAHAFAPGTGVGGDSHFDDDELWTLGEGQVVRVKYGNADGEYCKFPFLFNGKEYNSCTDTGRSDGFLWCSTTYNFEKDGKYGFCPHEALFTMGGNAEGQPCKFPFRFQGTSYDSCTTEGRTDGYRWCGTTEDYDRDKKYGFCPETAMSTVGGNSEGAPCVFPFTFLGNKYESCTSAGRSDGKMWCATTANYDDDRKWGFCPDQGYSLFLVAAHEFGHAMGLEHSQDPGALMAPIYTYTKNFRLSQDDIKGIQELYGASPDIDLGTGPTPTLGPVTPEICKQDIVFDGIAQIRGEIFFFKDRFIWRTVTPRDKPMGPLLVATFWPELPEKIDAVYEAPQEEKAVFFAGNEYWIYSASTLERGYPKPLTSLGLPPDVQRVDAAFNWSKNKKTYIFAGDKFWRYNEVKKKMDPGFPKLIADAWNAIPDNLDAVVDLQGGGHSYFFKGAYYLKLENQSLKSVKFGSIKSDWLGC
Experimental: (§1) Recombinant human MMP-1, MMP-2, MMP-9, MMP-13, and were used in this assay. These enzymes were prepared in the Assignee's es following usual laboratory procedures. Specifics for preparing and e enzymes can be found in the scientific literature describing these See, e.g., Enzyme Nomenclature (Academic Press, San Diego, Calif., d the citations therein).
The MMP-2 was obtained from MMP-2 expressing transfected cells provided by Dr. Gregory Goldberg of Washington University.
(§2) The enzyme substrate was a methoxycoumarin-containing polypeptide having the following sequence:
(§3) MCA-ProLeuGlyLeuDpaAlaArgNH2
(§4) Here, “MCA” is methoxycoumarin and “Dpa” is 3-(2,4-dinitrophenyl)-L-2,3-diaminopropionyl alanine.
(§5) These solutions were then compared to a control (which contained equal amount of DMSO/buffer solution, but no hydroxamate compound) using Microfluor™ White Plates (Dynatech, Chantilly, Va.). Specifically, The MMPs were activated with APMA or trypsin. […] The control likewise was incubated at room temperature in separate plates with the MMP and 4 uM of the MMP substrate. […] Inhibition was measured as a reduction in fluorescent intensity as a function of inhibitor concentration using a Perkin Elmer (Norwalk, Conn.) L550 plate reader. The IC50's were then calculated from these measurements.

Recombinant human MMP-13 = biological target: T2, Recombinant human MMP-13 (Homo sapiens, UniProt P45452); test: biochemical; details: fluorogenic MCA-peptide substrate, pH 7.5, room temperature; read-out: MMP-13 IC50
T2 construct: made in house; host or cells: baculovirus / insect cells
Experimental: as §1
The expressed proenzyme was first purified over a heparin agarose column, and then over a chelating zinc chloride column. The proenzyme was then activated by APMA for use in the assay.
as §2, §3, §4, §5

SMILES | IC50 (Recombinant human MMP-2) [nM] | IC50 (Recombinant human MMP-13) [nM]
C[C@H]1C[C@H](C)CN(C(=O)C2CCN(c3ccc(S(=O)(=O)C4(C(=O)NO)CCNCC4)cc3)CC2)C1 (relative stereo) [Example 72, rel-4-[[4-[4-[[(3R,5R)-3,5-dimethyl-1-piperidinyl]carbonyl]-1-piperidinyl]phenyl]sulfonyl]-N-hydroxy-4-piperidinecarboxamide, monohydrochloride] | 10000 | –
CN(C)CCN1CCN(C(=O)C2CCN(c3ccc(S(=O)(=O)C4(C(=O)NO)CCOCC4)cc3)CC2)CC1 [Example 19] | 10000 | –
C[C@@H]1CN(C(=O)C2CCN(c3ccc(S(=O)(=O)C4(C(=O)NO)CCOCC4)cc3)CC2)C[C@H](C)O1 [Example 30] | > 10000 | 18.1
C[C@@H]1C[C@H](C)CN(C(=O)C2CCN(c3ccc(S(=O)(=O)C4(C(=O)NO)CCNCC4)cc3)CC2)C1 [Example 74, rel-4-[[4-[4-[[(3R,5S)-3,5-dimethyl-1-piperidinyl]carbonyl]-1-piperidinyl]phenyl]sulfonyl]-N-hydroxy-4-piperidinecarboxamide, monohydrochloride] | 10000 | –
CC1CC(C)CN(C(=O)C2CCN(c3ccc(S(=O)(=O)C4(C(=O)NO)CCN(C(=O)CN5CCN(CCN(C)C)CC5)CC4)cc3)CC2)C1 (stereo not drawn) [Example 111] | 10000 | –
CC1CC(C)CN(C(=O)C2CCN(c3ccc(S(=O)(=O)C4(C(=O)NO)CCN(C(=O)CNCC(F)(F)F)CC4)cc3)CC2)C1 (stereo not drawn) [Example 113] | 10000 | –
COCCN1CCC(C(=O)NO)(S(=O)(=O)c2ccc(N3CCC(C(=O)c4ccc(C=C(C)C)s4)CC3)cc2)CC1 [Example 122] | 106 | 0.1
COc1ccc(C(=O)C2CCN(c3ccc(S(=O)(=O)C4(C(=O)NO)CCN(C(=O)c5ccco5)CC4)cc3)CC2)cc1 [Example 139] | 330 | 1.8
COc1ccc(C(=O)C2CCN(c3ccc(S(=O)(=O)C4(C(=O)NO)CCNCC4)cc3)CC2)cc1 [Example 140] | 800 | 18.1
O=C(NO)C1(S(=O)(=O)c2ccc(N3CCC(SCc4ccc(OC(F)(F)F)cc4)CC3)cc2)CCN(C2CC2)CC1 [Example 143] | 100 | 2.1
O=C(NO)C1(S(=O)(=O)c2ccc(N3CCC(SCc4ccc(OC(F)(F)F)cc4)CC3)cc2)CCNCC1 [Example 146] | 200 | 4
O=C(NO)C1(S(=O)(=O)c2ccc(N3CCC(SCc4ccccc4Cl)CC3)cc2)CCN(C2CC2)CC1 [Example 147] | 145 | 20
O=C(NO)C1(S(=O)(=O)c2ccc(N3CCC(SCc4cccc(C(F)(F)F)c4)CC3)cc2)CCN(C2CC2)CC1 [Example 149] | 210 | 16.9
C=CCN1CCC(C(=O)NO)(S(=O)(=O)c2ccc(N3CCC(C(=O)c4ccc(CCC)cc4)CC3)cc2)CC1 [Example 159] | 32.2 | 0.5
C=CCN1CCC(C(=O)NO)(S(=O)(=O)c2ccc(N3CCC(C(=O)c4ccc(NC)cc4)CC3)cc2)CC1 [Example 161] | 235 | 0.3
CCCc1ccc(C(=O)C2CCN(c3ccc(S(=O)(=O)C4(C(=O)NO)CCN(S(C)(=O)=O)CC4)cc3)CC2)cc1 [Example 165] | 1750 | 85.9
CS(=O)(=O)N1CCC(C(=O)NO)(S(=O)(=O)c2ccc(N3CCC(C(=O)c4ccc5ccccc5c4)CC3)cc2)CC1 [Example 166] | > 10000 | 438
CNc1ccc(C(=O)C2CCN(c3ccc(S(=O)(=O)C4(C(=O)NO)CCN(S(C)(=O)=O)CC4)cc3)CC2)cc1 [Example 167] | 2950 | 4.7
CCN1CCC(C(=O)NO)(S(=O)(=O)c2ccc(N3CCC(C(=O)c4ccc(NC)cc4)CC3)cc2)CC1 [Example 172] | 649 | 3.1
C#CCN1CCC(C(=O)NO)(S(=O)(=O)c2ccc(N3CCC(C(=O)c4ccc(NC)cc4)CC3)cc2)CC1 [Example 173] | 117 | 0.9
O=C(c1ccc(CC2CCCCC2)cc1)C1CCN(c2ccc(S(=O)(=O)C3(C(=O)NO)CCN(C4CC4)CC3)cc2)CC1 [Example 198] | 2570 | 12
COCCN1CCC(C(=O)NO)(S(=O)(=O)c2ccc(N3CCC(C(=O)c4ccc(OCCC5CCCCC5)cc4)CC3)cc2)CC1 [Example 228] | 155 | 19.5
COCCN1CCC(C(=O)NO)(S(=O)(=O)c2ccc(N3CCC(C(=O)c4ccc(CO)cc4)CC3)cc2)CC1 [Example 238] | 62.1 | 1.8

SMILES | IC50 (Recombinant human MMP-2) [nM] | IC50 (Recombinant human MMP-13) [nM]
COCCN1CCC(C(=O)NO)(S(=O)(=O)c2ccc(N3CCC(C(=O)c4ccc(COCC5CC5)cc4)CC3)cc2)CC1 [Example 239] | 75.8 | 0.6
COCCN1CCC(C(=O)NO)(S(=O)(=O)c2ccc(N3CCC(C(=O)c4ccc(CN5CCOCC5)cc4)CC3)cc2)CC1 [Example 240] | 86 | 2.8
COCCN1CCC(C(=O)NO)(S(=O)(=O)c2ccc(N3CCC(C(=O)c4ccc(CCCC(C)O)cc4)CC3)cc2)CC1 (stereo not drawn) [Example 244] | – | 0.2
COCCN1CCC(C(=O)NO)(S(=O)(=O)c2ccc(N3CCC(C(=O)c4ccc(CCC(C)O)cc4)CC3)cc2)CC1 (stereo not drawn) [Example 245] | 38.6 | 1.1
COCCN1CCC(C(=O)NO)(S(=O)(=O)c2ccc(N3CCC(C(=O)c4ccc(OC(C)C)c(F)c4)CC3)cc2)CC1 [Example 250] | 107 | 2.1
COCCN1CCC(C(=O)NO)(S(=O)(=O)c2ccc(N3CCC(C(=O)c4ccc(COC)s4)CC3)cc2)CC1 [Example 252] | 14.3 | 0.4
COCCN1CCC(C(=O)NO)(S(=O)(=O)c2ccc(N3CCC(Sc4nccs4)CC3)cc2)CC1 [Example 256] | 35.4 | 7.5
COCCN1CCC(C(=O)NO)(S(=O)(=O)c2ccc(N3CCC(c4nc5ccccc5o4)CC3)cc2)CC1 [Example 258] | 45.4 | 14.1
O=C(NO)C1(S(=O)(=O)c2ccc(N3CCC(c4ccc(F)cc4)CC3)cc2)CCN(C2CC2)CC1 [Example 259] | 0.6 | 0.4
O=C(NO)C1(S(=O)(=O)c2ccc(N3CCC(c4ccc(Cl)cc4)CC3)cc2)CCN(C2CC2)CC1 [Example 261] | 1 | 0.8
COCCN1CCC(C(=O)NO)(S(=O)(=O)c2ccc(N3CCC(c4ccc(F)cc4)CC3)cc2)CC1 [Example 262] | 1.7 | 1
O=C(NO)C1(S(=O)(=O)c2ccc(N3CCC(c4ccc(Cl)cc4)CC3)cc2)CCN(CC2CC2)CC1 [Example 266] | – | 1.7
Cc1ccc(C2CCN(c3ccc(S(=O)(=O)C4(C(=O)NO)CCN(CC5CC5)CC4)cc3)CC2)cc1 [Example 273] | 13.4 | 2.5
COCCN1CCC(C(=O)NO)(S(=O)(=O)c2ccc(N3CCC(C(=O)c4ccc(C)cc4)CC3)c(Cl)c2)CC1 [Example 275] | 6740 | 184
COCCN1CCC(C(=O)NO)(S(=O)(=O)c2ccc(N3CCC(C(=O)c4cccc(OC)c4)CC3)c(Cl)c2)CC1 [Example 276] | 2730 | 127
COCCN1CCC(C(=O)NO)(S(=O)(=O)c2ccc(N3CCC(C(=O)c4cccc(C)c4)CC3)c(Cl)c2)CC1 [Example 277] | > 10000 | 274
CN(C)c1ccc(C(=O)C2CCN(c3ccc(S(=O)(=O)C4(C(=O)NO)CCOCC4)cc3)CC2)cc1 [Example 320] | 10000 | –
CCCCOc1ccc(C(=O)C2CCN(c3ccc(S(=O)(=O)C4(C(=O)NO)CCOCC4)cc3)CC2)cc1 [Example 329] | 1800 | 20
Cn1ccc2cc(C(=O)C3CCN(c4ccc(S(=O)(=O)C5(C(=O)NO)CCOCC5)cc4)CC3)ccc21 [Example 340] | 10000 | –
O=C(NO)C1(S(=O)(=O)c2ccc(N3CCC(c4nnc(-c5ccc(C(F)(F)F)cc5)o4)CC3)cc2)CCOCC1 [Example 375] | 2660 | 34.4
O=C(NO)C1(S(=O)(=O)c2ccc(N3CCC(N4CCc5ccccc54)CC3)cc2)CCOCC1 [Example 383] | 382 | 36.9
CN(C)Cc1ccc(C(=O)C2CCN(c3ccc(S(=O)(=O)C4(C(=O)NO)CCOCC4)cc3)CC2)cc1 [Example 384] | 52.9 | 2.9
